The species named for experiment [1] is Rattus norvegicus. The experiment in a line: Effect on TAase activity assessed as inhibition of GST in liver microsome at 50 uM. The class given is microsomes.
Experiment [2] is filed under the species Rattus norvegicus. In words: Effect on TAase activity assessed as activation of liver microsomal NADPH cytochrome P450 at 5 uM. A general note: Liver microsomes are a subcellular fraction often used to study metabolism.
For another experiment, the system named is Bone marrow cell. In words: Inhibition of micronuclei formation in benzene-induced in Wistar Albino rat bone marrow cells at 300 mg/ kg, ip after 1 hr. To be noted: route intraperitoneal. The class given is functional.
Experiment [3] is filed under the species Rattus norvegicus. The experiment in a line: Inhibition of liver microsomal EROD at 25 uM.

Molecules are shown by their SMILES.

As a reminder, the inhibition is the relative decrease from the control value, in per cent. On to `CC(=O)Oc1ccc2c(=O)c(C(C)=O)c(C)oc2c1OC(C)=O`, for which the inhibition in the experiment listed under Rattus norvegicus [1] turned out to be 15.3%. In the experiment filed under Rattus norvegicus [2], the Activity was determined as 27.6%.
By inhibition in vivo is commonly meant the change of the read-out against control, counted positive when it falls. Compound `CC(=O)Oc1cc2c(=O)oc3c(OC(C)=O)c(OC(C)=O)cc4c(=O)oc(c1OC(C)=O)c2c34` [ELLAGIC ACID TETRAACETATE] displayed an inhibition in vivo at 300 mg/kg in the experiment with Bone marrow cell of 39.6%. Also, the inhibition in the experiment filed under Rattus norvegicus [1] turned out to be 10.1%. For the same compound, in the experiment filed under Rattus norvegicus [2], the Activity is 16.1%.
As to `CC(=O)Oc1ccc2c(=O)c(-c3ccccc3)c(C)oc2c1`, the inhibition in the experiment filed under Rattus norvegicus [1] is 3.1%; in the experiment filed under Rattus norvegicus [3] it was 16.1%. Also, the Activity in the experiment listed under Rattus norvegicus [2] was 7.1%.
As to `CC(=O)Oc1ccc2c(C(C/C=C/C#CC(C)(C)C)S(=O)(=O)c3ccccc3)cc(=O)oc2c1` (stereo unspecified), the inhibition in the experiment listed under Rattus norvegicus [1] stood at 4.01%. Besides, the Activity in the experiment filed under Rattus norvegicus [2] stood at 7.6%.
On to `CC(=O)Oc1ccc2c(C(C/C=C/C#CC(C)(C)C)S(=O)(=O)c3ccccc3)cc(=O)oc2c1OC(C)=O` (stereo unspecified), for which the inhibition in the experiment filed under Rattus norvegicus [1] was found to be 10.4%. For the same compound, the Activity in the experiment filed under Rattus norvegicus [2] is 15.9%.
For the compound `CC(=O)Oc1ccc2c(=O)c(C(C)=O)c(C)oc2c1`, the inhibition in the experiment listed under Rattus norvegicus [1] worked out at 6.03%; in the experiment listed under Rattus norvegicus [3], 31.5%. In the experiment listed under Rattus norvegicus [2], the Activity was determined as 15.1%.
Regarding `CC(=O)Oc1ccc2c(=O)c(-c3ccccc3)coc2c1OC(C)=O`, the inhibition in the experiment filed under Rattus norvegicus [1] is 6.89%; in the experiment listed under Rattus norvegicus [3] it was 32.4%. Moreover, the Activity in the experiment listed under Rattus norvegicus [2] amounted to 14.5%.
Regarding `CC(=O)Oc1ccc2c(OC(C)=O)c(Cc3c(OC(C)=O)c4ccc(OC(C)=O)c(OC(C)=O)c4oc3=O)c(=O)oc2c1OC(C)=O`, in the experiment with Bone marrow cell, the inhibition in vivo at 300 mg/kg was 37.9%. Also, the inhibition in the experiment filed under Rattus norvegicus [1] worked out at 10.1%; in the experiment filed under Rattus norvegicus [3] it was 39.3%. Further, in the experiment listed under Rattus norvegicus [2], the Activity turned out to be 17.2%.
Take `CC(=O)Oc1ccc2c(=O)cc(-c3ccccc3)oc2c1`: the values for the inhibition in the experiment filed under Rattus norvegicus [1] and in the experiment listed under Rattus norvegicus [3] were 3.6% and 16.4%, respectively. Moreover, the Activity in the experiment listed under Rattus norvegicus [2] stood at 6.9%.
Regarding `CC(=O)Oc1ccc2c(C)cc(=O)oc2c1OC(C)=O`, the inhibition in vivo at 300 mg/kg in the experiment on Bone marrow cell was determined as 65%. Moreover, the inhibition in the experiment listed under Rattus norvegicus [1] was determined as 15.2%; in the experiment filed under Rattus norvegicus [3] it was 58.4%. Also, the Activity in the experiment listed under Rattus norvegicus [2] came to 25.8%.
For `CC(=O)Oc1ccc(OC(C)=O)c2c(=O)c3ccccc3oc12`, the values for the inhibition in the experiment listed under Rattus norvegicus [1] and in the experiment listed under Rattus norvegicus [3] were 12.7% and 41.9%, respectively. Besides, in the experiment filed under Rattus norvegicus [2], the Activity came out at 21.7%.
`CC(=O)Oc1cc(C(C)=O)c2c(C)cc(=O)oc2c1`: the inhibition in the experiment filed under Rattus norvegicus [1] stood at 7.65%. The Activity in the experiment filed under Rattus norvegicus [2] worked out at 15.6%.
Taken in the same sequence, the figures for `CC(=O)Oc1cc(OC(C)=O)c2c(=O)c(C(C)=O)c(C)oc2c1` were 6.68% and 16.7%.
On to `CC(=O)Oc1ccc2c(c1)OC(=O)CC2c1ccccc1` (stereo unspecified), for which the inhibition in the experiment filed under Rattus norvegicus [1] was determined as 3.31%. Besides, the Activity in the experiment listed under Rattus norvegicus [2] turned out to be 6.77%.
Taken in the same sequence, the figures for `CC(=O)Oc1cccc2oc3ccccc3c(=O)c12` were 3.43% and 5.06%.
As for `CC(=O)Oc1ccc2c(C)cc(=O)oc2c1`, in the experiment on Bone marrow cell, testing at 300 mg/kg gave an inhibition in vivo of 44.6%. For the same compound, the figures for the inhibition in the experiment filed under Rattus norvegicus [1] and in the experiment filed under Rattus norvegicus [3] were 7.1% and 30.8%, respectively. The Activity in the experiment listed under Rattus norvegicus [2] was found to be 14.5%.
On to `CCCCCCC(c1cc(=O)oc2cc(OC(C)=O)ccc12)S(=O)(=O)c1ccccc1` (stereo unspecified), for which the inhibition in the experiment listed under Rattus norvegicus [1] turned out to be 3.96%. Moreover, in the experiment filed under Rattus norvegicus [2], the Activity was determined as 7.17%.

The values are drawn from ChEMBL document CHEMBL1144583, “Specificities of acetoxy derivatives of coumarins, biscoumarins, chromones, flavones, isoflavones and xanthones for acetoxy drug: protein transacetylase” (2007).
